Test results from patent US6572880B2, “Methods and transdermal compositions for pain relief” (priority 1996, dated 2003).
Entries after “also recorded” stand apart in the source; their conditions may differ. Structures can show the parent of a compound that is named as a salt.

Legend:
[1] = in vivo
Protocol: A dosage of 40 mg per day was self-administered by a patient by application to the skin, for a period of at least 1 hour.
Sertraline (Zoloft) gel was prepared, according to the procedures of example 9. A dosage of 100 mg per day was self-administered by a patient by application to the skin, for a period of at least 1 hour.
A dosage of 20 mg per day was self-administered by a patient by application to the skin, for a period of at least 1 hour.
Carbamazepine (Tegretol) gel was prepared, according to the procedures of example 4. A dosage of 400 mg per day was self-administered by a patient by application to the skin, for a period of at least 1 hour.
(§1) Carbamazepine (Tegretol) gel was prepared, according to the procedures of example 4. A dosage of 200 mg per day was self-administered by a patient by application to the skin, for a period of at least 1 hour.
Sertraline (Zoloft) gel was prepared, according to the procedures of example 9. A dosage of 50 mg per day was self-administered by a patient by application to the skin, for a period of at least 1 hour.
as §1
A dosage of 100 mg per day was selfadministered by a patient by application to the skin, for a period of at least 1 hour.
A dosage of 80-160 mg per day was self administered by a person by application to the skin, for a period of at least 1 hour. […] The dosage was then increased to 160 mg per day and administered by the same method.
A dosage of 80-160 mg/day was self administered by a person by application to the skin, for a period of at least 1 hour. […] The dosage was then increased to 160 mg per day and administered by the same method.
A dosage of 500-1000 mg was self administered by two male patients. Administration was by application to the skin, for a period of at least one hour.

[2] = cited from earlier work
[3] = skin irritation and side effects reported on transdermal administration; assay type: in vivo, human; settings: for overall assessment of side effects when administered transdermally: conclusion from the patient results
Protocol: Preferably, a gel preparation is applied to the skin at the site or sites of pain. Patients can be evaluated by means of a structured evaluation form, e.g., completed at a frequency of at least one time per week. Evaluation of patients are for the present symptoms as well as any side effects from currently administered medications. This makes it possible to note changes on an ongoing basis.
Patients in the examples above were evaluated by means of a structured evaluation form depicted in FIG. 1, which was completed at a frequency of at least one time per week for each patient receiving transdermal medication according to the present invention. The patients were evaluated both for all present psychiatric symptoms as well as any side effects from currently-administered medications.

[4] = patient-reported pain relief after transdermal application to site of pain; assay type: in vivo, human; settings: for overall assessment of pain relief when administered transdermally: conclusion from the patient results
Text: Compositions according the examples 45 through 47, 53, 55 were transdermally applied to numerous patients, for the purpose of treating pain including as described in other examples herein, with the results summarized in Table I below.

[5] = blood serum; cited from earlier work
[6] = summary of Table I, best result per patient

CC(NC(C)(C)C)C(=O)c1cccc(Cl)c1 (centres unmarked) [Buproprion]
transdermal absorption as judged from blood level [1]: poor or equivocal absorptions and results | solubility in water [2]: highly soluble

NC(=O)N1c2ccccc2C=Cc2ccccc21 [Carbamazepine]
transdermal absorption as judged from blood level [1]: good absorption | overall assessment of side effects when administered transdermally [3]: appears to cause a rash in at least some patients | overall assessment of pain relief when administered transdermally [4]: positive effects | typical therapeutic levels / therapeutic reference range [5]: 4 to 10 µg/mL | solubility in alcohol and in acetone [2]: soluble | solubility in water [2]: practically insoluble

CNCCC(Oc1ccc(C(F)(F)F)cc1)c1ccccc1 (centres unmarked) [Fluoxetine hydrochloride]
typical reference levels [5]: 50 to 480 ng/mL

NCC1(CC(=O)O)CCCCC1 [Gabapentin]
overall assessment of side effects when administered transdermally [3]: free of side effects

COc1ccccc1OCC(O)CO (centres unmarked) [Guaifenesin]
overall assessment of pain relief when administered transdermally [4]: benefit as an adjunctive treatment, of painful spasticity

Fc1ccc([C@@H]2CCNC[C@H]2COc2ccc3c(c2)OCO3)cc1 [Paroxetine hydrochloride]
typical reference levels [5]: 49 ± 26 ng/mL

CN[C@H]1CC[C@@H](c2ccc(Cl)c(Cl)c2)c2ccccc21 [Sertraline hydrochloride]
transdermal absorption as judged from blood level [1]: do not appear to be absorbed well or reliably | typical reference levels [5]: 30 to 200 ng/mL | solubility in ethanol [2]: sparingly soluble | solubility in isopropyl alcohol [2]: slightly soluble | solubility in water [2]: slightly soluble

CCCC(CCC)C(=O)O [Valproic acid]
transdermal absorption as judged from blood level [1]: do not appear to be absorbed well or reliably | skin irritation ([3]; application to the skin): appears to cause skin irritation in some patients | typical therapeutic levels / therapeutic reference range [5]: 50 to 150 µg/mL

CN(C)CCC=C1c2ccccc2CCc2ccccc21 [amitriptyline]
overall assessment of pain relief when administered transdermally [4]: limited pain relief

CN(C)CCC=C1c2ccccc2COc2ccccc21 [doxepin]
overall assessment of side effects when administered transdermally [3]: substantially free of side effects | overall assessment of pain relief when administered transdermally [4]: effective pain relief medication | overall assessment of pain relief when administered transdermally ([4]; listed as Doxepin): about three times the positive response rate; also recorded: substantially more effective than amitriptyline | percent reported pain relief: Major [4, 6]: 23.1% | percent reported pain relief: Mild [4, 6]: 7.7% | percent reported pain relief: Mild-moderate [4, 6]: 7.7% | percent reported pain relief: Total [4, 6]: 7.7% | percent reported pain relief: moderate [4, 6]: 53.8%
